Tests used:
PKG-1α [1] = target: T1, PKG-1α (Homo sapiens, UniProt Q13976, Y425F); assay: PKG activity in transfected HEK-293T cells; assay type: cell-based; settings: HEK-293T expressing Y425F-PKG-1α; SIN-1 500 μM, 30 min
T1 construct: an expression plasmid containing a full length WT-PKG-1α cDNA; expressed in transfected cells; host or cells: HEK-293T
T1 sequence (Q13976 2-671 Y425F): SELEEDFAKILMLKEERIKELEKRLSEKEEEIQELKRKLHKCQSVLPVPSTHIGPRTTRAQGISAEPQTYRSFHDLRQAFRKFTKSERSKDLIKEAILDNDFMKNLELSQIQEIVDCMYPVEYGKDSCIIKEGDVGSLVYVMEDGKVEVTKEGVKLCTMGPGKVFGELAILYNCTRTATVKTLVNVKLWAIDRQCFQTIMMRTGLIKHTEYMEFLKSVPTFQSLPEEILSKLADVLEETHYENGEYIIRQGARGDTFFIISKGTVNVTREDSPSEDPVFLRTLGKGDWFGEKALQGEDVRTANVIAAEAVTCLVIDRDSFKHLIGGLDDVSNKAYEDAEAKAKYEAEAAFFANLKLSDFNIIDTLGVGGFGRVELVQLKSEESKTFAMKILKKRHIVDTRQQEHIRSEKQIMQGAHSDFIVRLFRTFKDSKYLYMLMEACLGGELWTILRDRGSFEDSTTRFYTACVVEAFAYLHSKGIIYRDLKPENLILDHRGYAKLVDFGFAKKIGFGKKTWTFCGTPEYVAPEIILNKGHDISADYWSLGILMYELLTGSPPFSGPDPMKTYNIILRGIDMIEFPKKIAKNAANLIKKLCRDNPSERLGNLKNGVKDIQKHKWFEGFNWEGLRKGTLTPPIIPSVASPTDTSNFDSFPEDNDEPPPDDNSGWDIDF
Experimental: (§1) To determine the role of tyrosine 247 and tyrosine 425 in mediating the nitration dependent inhibition of PKG-1α kinase activity, Y247F- and Y425F-PKG-1α mutants were generated and expressed in HEK-293T cells. HEK-293T cells were transiently transfected with expression plasmids containing WT-, Y247F-, or Y425F-PKG-1α for 48 h. […] Protein extracts were immunoprecipitated using an antibody raised against PKG-1α and the level of nitrated PKG-1α determined by probing the membranes with an antiserum raised against 3-NT. The blots were then stripped and re-probed for PKG-1α to normalize for the efficiency of the immunoprecipitation.
(§2) Total PKG activity was determined using a non-radioactive immunoassay in cell lysates, according to the manufacturer's directions. […]
(§3) After incubation for 30 min at 30° C. to allow the phosphorylation of the bound substrate, an HRP conjugated anti-phosphothreonine specific antibody was added to convert a chromogenic substrate to a colorimetric substrate that was subsequently read spectrophotometrically at 450 nm. The change in absorbance reflected the relative activity of PKG in the sample. […] The kinetic constants were determined using nonlinear regression (curve fit) analysis (GraphPad Prism Software Inc.).

PKG-1α [2] = assay: PKG activity in transfected HEK-293T cells; assay type: cell-based, human; settings: HEK-293T; SIN-1 500 μM, 30 min
Experimental: as §1, §2, §3

[3] = tested on: pulmonary artery smooth muscle cells (PASMC); assay: PASMC cell growth (cell count); assay type: cell-based, lamb; settings: WT-PKG-1α transfected PASMC; SIN-1 500 μM, 48 h
Experimental: Pulmonary artery smooth muscle cells (PASMC) were grown on a 10 cm dish to 75% confluence, transfected with WT-PKG-1α or Y247F-PKG-1α cDNA using a Qiagen transfection kit, according to manufacturer's instructions, and incubated at 37° C. for 20 h. […] The cells were then trypsinized, seeded onto a 6-well plate at a density of 2.5×10^4 cells per well, and grown for an additional 4 h in serum-free DMEM growth medium containing 1% FBS and antibiotics. The cells were then treated with or without SIN-1 (500 μM) and allowed to grow at 37° C. in the incubator for an additional 48 h. The cellular proliferation was evaluated by counting the cells with a hemacytometer (Cascade Biologicals™, Portland, Oreg.) after the trypsinization of the PASMC monolayers.
Primary cultures of pulmonary artery smooth muscle cells (PASMC) from 4-week old lambs were isolated by the explant technique, as previously described (Wedgwood, S., et al., Circulation Research 89, 357-364 (2001)). Briefly, a segment of the main pulmonary artery from a 4-week old lamb was excised and placed in a sterile 10 cm dish containing DMEM supplemented with 1 gm/1 glucose. The segment was stripped of adventitia with a sterile forceps. The main pulmonary artery segment was then cut longitudinally to open the vessel, and the endothelial layer was removed by gentle rubbing with a cell scraper. […]

cGMP dependent PKG activity (PKG-1α [1]): attenuated
Substance: 3-morpholinosydnonimine N-ethylcarbamide [SIN-1]
cGMP-independent PKG activity (PKG-1α [2]): did not alter | proliferation [3]: stimulated

Source: US9551711B2, “Compositions and methods for detecting nitration of PKG-1α and methods of use thereof” (Augusta University Research Institute, Inc., priority 2013, dated 2017)
